Patent EP4471049A1 (Zealand Pharma A/S, priority 2023, dated 2024)
*1 amine or outer side, *2 acyl side, *3 side chain or, on linkers, in order; H or OH if unused. Where a SMILES comes first, the peptide text is derived from it. Bridges are numbered along the chain shown (N, C = ends). [ ]: non-standard residue; d: D form. 2Nal = N[C@@H](Cc1ccc2ccccc2c1)C(=O)O; AEF = NCCOc1ccc(C[C@H](N)C(=O)O)cc1; X1 = O=C(Cc1ccc(CN[*:1])cc1)[*:2]; 3Pal = N[C@@H](Cc1cccnc1)C(=O)O; αMeL = CC(C)C[C@](C)(N)C(=O)O; Dab = NCC[C@H](N)C(=O)O; Sar = CNCC(=O)O

Target: IL-23 mediated STAT3 signalling (Homo sapiens, UniProt Q5VWK5)
Sequence (Q5VWK5 24-629 limits assumed): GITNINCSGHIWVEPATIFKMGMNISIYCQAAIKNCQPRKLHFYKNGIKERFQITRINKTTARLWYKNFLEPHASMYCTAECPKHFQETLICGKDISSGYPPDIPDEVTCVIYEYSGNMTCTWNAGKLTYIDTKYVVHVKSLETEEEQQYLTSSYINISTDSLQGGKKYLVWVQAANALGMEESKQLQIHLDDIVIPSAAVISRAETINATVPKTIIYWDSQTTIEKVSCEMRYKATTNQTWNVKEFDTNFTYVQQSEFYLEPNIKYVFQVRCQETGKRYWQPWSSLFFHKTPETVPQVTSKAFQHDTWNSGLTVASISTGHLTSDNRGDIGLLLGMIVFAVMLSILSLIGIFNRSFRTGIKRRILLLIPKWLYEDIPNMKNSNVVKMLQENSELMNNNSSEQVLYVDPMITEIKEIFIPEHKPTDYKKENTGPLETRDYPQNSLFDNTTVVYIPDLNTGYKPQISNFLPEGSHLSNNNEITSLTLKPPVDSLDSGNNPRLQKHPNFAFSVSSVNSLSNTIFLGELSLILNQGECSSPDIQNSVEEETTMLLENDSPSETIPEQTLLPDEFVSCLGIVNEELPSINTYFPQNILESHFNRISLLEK
Test: Functional inhibition of IL-23 mediated STAT3 signalling (phospho-STAT3 Tyr705 MSD, DB cells)
Assay type: cell-based
Details: Example 2 (Tables 2-1 to 2-4), read-out: IC50 (pSTAT3)
Experimental: The ability of compounds to inhibit IL-23 mediated signalling was determined in the human-derived DB cell line (CRL-2289) (hereafter referred to as DB cells), which endogenously expresses the human IL-23R and human IL-12R β1 subunits. Upon binding of IL-23, the IL-23R forms a heterodimer signalling complex together with IL-12R β1, which through the JAK2/STAT3 pathway promotes phosphorylation of STAT3 to form phospho-STAT3. In the assay, the functional antagonism of IL-23 mediated phospho-STAT3 formation in DB cells by the compound is quantified using reagents capable of measuring the phosphorylation state of Tyr705 of STAT3 in the form of a phospho-STAT3 (Tyr705) MSD (Meso Scale Discovery) kit.
[…]. For compounds tested in this assay, the response was normalized relative to control values to calculate the IC50 and maximal inhibitory response from a concentration response curve of the compound in presence of a fixed concentration of human IL-23.
The assay procedure was as follows. DB cells were maintained in growth medium consisting of RPMI-1640 [Invitrogen 61870-010] supplemented with 10% V/V Foetal Bovine Serum (FBS) [(heat inactivated), Invitrogen 10270-106], and 1% V/V Penicillin-Streptomycin (Pen-Strep) Solution [Invitrogen 15140]. On the day of assay, cells were resuspended in Assay buffer consisting of RPMI-1640 [Invitrogen 61870-010] supplemented with 0.1 % w/V BSA [Sigma-Aldrich A9430] to a density of 7.5x10^6 cells/mL. Compounds to be tested for inhibition of hIL-23 mediated signalling were serially diluted in Assay buffer to 3X the final concentration. A solution of hIL-23 corresponding to 3X the EC80 of hIL-23 (1.7 nM) was also prepared in Assay buffer. To initiate the assay, 20 µL of DB cell suspension (corresponding to 150.000 cells/well) was added to the wells of a 96-well V-bottom Polypropylene plate [Corning 3363] followed by addition of 3X 20 µL of the diluted test compounds to separate wells. Following preincubation of the DB cells with inhibitor for 15 min in a cell incubator (37 °C, 5% CO2), 20 µL of the prepared 3X the EC80 of hIL-23 solution was added to each well and incubated for 90 min in a cell incubator (37 °C, 5% CO2). For some wells buffer only or IL-23 only corresponding to the EC80 was added to obtain readouts needed for normalization. To terminate the assay, the plate was spun at 1000 G for 5 min to pellet cells, the supernatant removed using an 8-channel manual pipette, and then added 50 µL/well Complete Lysis Buffer from the MSD STAT3 kit (Cat# K150SVD, Mesoscale) to the cell pellet. To completely lyse cells to release phospho-STAT3 for detection, the plate was shaken for 10 min at room temperature (500 rpm) sealed with aluminium foil and placed at -80 °C for a minimum of 15 min. Detection of the phospho-STAT3 level in the cell lysate from the individual wells was determined using the MSD STAT3 kit (Cat# K150SVD, Mesoscale) and read on a Meso QuickPlex SQ 120 plate reader (Mesoscale).
For data analysis raw data counts from the Meso QuickPlex SQ 120 plate reader were normalized relative to the response by the EC80 of hIL-23 alone (no compound added) and the buffer level. Compound potency (IC50) and maximal inhibitory response (% inhibition) were estimated by computer-aided curve fitting using a 4-parameter logistic (4PL) non-linear model. […]. Typically compounds with a low IC50 are desired. Typically compounds capable of completely inhibiting the IL23-induced response are desired. […]. Table 3-2: hIL-23 (pSTAT3) antagonist IC50 and % inhibition data

Compound | IC50
CC(C)C[C@]1(C)NC(=O)[C@H](Cc2ccc3ccccc3c2)NC(=O)[C@H](Cc2ccc(OCCN)cc2)NC(=O)[C@@H]2CCNC(=O)CC[C@H](NC(=O)[C@H](CO)NC(=O)Cc3ccc(cc3)CNC(=O)CC[C@@H](C(=O)N[C@@H](CCN)C(=O)N[C@@](C)(Cc3cccnc3)C(N)=O)NC1=O)C(=O)N[C@@H](Cc1c[nH]c3ccccc13)C(=O)N[C@@H](CCC(N)=O)C(=O)N2 [Compound 3, [4-Aminomethyl-phenylacetyl](1c)*SE(2c)WQ[Dab](2c)[Y(2-aminoethoxy)][2-Nal][2-Me-Leu]E(1c)[Dab][2-Me-3-(3-Pyridyl)-Ala]-[NH2]] | 1.7 nM
CC(C)C[C@]1(C)NC(=O)[C@H](Cc2ccc3ccccc3c2)NC(=O)[C@H](Cc2ccc(OCCN)cc2)NC(=O)[C@@H]2CCNC(=O)CC[C@H](NC(=O)[C@H](CO)NC(=O)Cc3ccc(cc3)CNC(=O)CC[C@@H](C(=O)N[C@@H](CCN)C(=O)N(C)[C@@H](Cc3cccnc3)C(N)=O)NC1=O)C(=O)N[C@@H](Cc1c[nH]c3ccccc13)C(=O)N[C@@H](CCC(N)=O)C(=O)N2 [Compound 4, [4-Aminomethyl-phenylacetyl](1c)*SE(2c)WQ[Dab](2c)[Y(2-aminoethoxy)][2-Nal][2-Me-Leu]E(1c)[Dab][N-Me-3-(3-Pyridyl)-Ala]-[NH2]] | 6.5 nM
CC(C)C[C@]1(C)NC(=O)[C@H](Cc2ccc3ccccc3c2)NC(=O)[C@H](Cc2ccc(OCCN)cc2)NC(=O)[C@@H]2CCNC(=O)CC[C@H](NC(=O)[C@H](CO)NC(=O)Cc3ccc(cc3)CNC(=O)CC[C@@H](C(=O)N[C@@H](CCN)C(=O)N[C@H](Cc3cccnc3)C(N)=O)NC1=O)C(=O)N[C@@H](Cc1c[nH]c3ccccc13)C(=O)N[C@@H](CCC(N)=O)C(=O)N2 [Compound 5, [4-Aminomethyl-phenylacetyl](1c)*SE(2c)WQ[Dab](2c)[Y(2-aminoethoxy)][2-Nal][2-Me-Leu]E(1c)[Dab][{d}3-(3-Pyridyl)-Ala]-[NH2]] | 2.1 nM
CC(C)C[C@]1(C)NC(=O)[C@H](Cc2ccc3ccccc3c2)NC(=O)[C@H](Cc2ccc(OCCN)cc2)NC(=O)[C@@H]2CCNC(=O)CC[C@H](NC(=O)[C@H](CO)NC(=O)Cc3ccc(cc3)CNC(=O)CC[C@@H](C(=O)N[C@@H](CCN)C(=O)NCCCCc3cccnc3)NC1=O)C(=O)N[C@@H](Cc1c[nH]c3ccccc13)C(=O)N[C@@H](CCC(N)=O)C(=O)N2 [Compound 6, [4-Aminomethyl-phenylacetyl](1c)*SE(2c)WQ[Dab](2c)[Y(2-aminoethoxy)][2-Nal][2-Me-Leu]E(1c)[Dab]-[NH-(4-(pyridin-3-yl)butanyl)]] | 3.2 nM
CC(C)C[C@]1(C)NC(=O)[C@H](Cc2ccc3ccccc3c2)NC(=O)[C@H](Cc2ccc(OCCN)cc2)NC(=O)[C@@H]2CCNC(=O)CC[C@H](NC(=O)[C@H](CO)NC(=O)Cc3ccc(cc3)CNC(=O)CC[C@@H](C(=O)N[C@@H](CCN)C(=O)NCCc3cccnc3)NC1=O)C(=O)N[C@@H](Cc1c[nH]c3ccccc13)C(=O)N[C@@H](CCC(N)=O)C(=O)N2 [Compound 7, [4-Aminomethyl-phenylacetyl](1c)*SE(2c)WQ[Dab](2c)[Y(2-aminoethoxy)][2-Nal][2-Me-Leu]E(1c)[Dab]-[NH-(2-(pyridin-3-yl)ethyl)]] | 0.13 nM
CNC(=O)[C@H](Cc1cccnc1)NC(=O)[C@H](CCN)NC(=O)[C@@H]1CCC(=O)NCc2ccc(cc2)CC(=O)N[C@@H](CO)C(=O)N[C@H]2CCC(=O)NCC[C@H](NC(=O)[C@H](CCC(N)=O)NC(=O)[C@H](Cc3c[nH]c4ccccc34)NC2=O)C(=O)N[C@@H](Cc2ccc(OCCN)cc2)C(=O)N[C@@H](Cc2ccc3ccccc3c2)C(=O)N[C@@](C)(CC(C)C)C(=O)N1 [Compound 8, [4-Aminomethyl-phenylacetyl](1c)*SE(2c)WQ[Dab](2c)[Y(2-aminoethoxy)][2-Nal][2-Me-Leu]E(1c)[Dab][3-(3-Pyridyl)-Ala]-[NHMe]] | 0.053 nM
CC(C)C[C@]1(C)NC(=O)[C@H](Cc2ccc3ccccc3c2)NC(=O)[C@H](Cc2ccc(OCCN)cc2)NC(=O)[C@@H]2CCNC(=O)CC[C@H](NC(=O)[C@H](CO)NC(=O)Cc3ccc(cc3)CNC(=O)CC[C@@H](C(=O)N[C@@H](CCN)C(=O)N[C@@H](Cc3cccnc3)C(=O)N(C)CC(N)=O)NC1=O)C(=O)N[C@@H](Cc1c[nH]c3ccccc13)C(=O)N[C@@H](CCC(N)=O)C(=O)N2 [Compound 9, [4-Aminomethyl-phenylacetyl](1c)*SE(2c)WQ[Dab](2c)[Y(2-aminoethoxy)][2-Nal][2-Me-Leu]E(1c)[Dab][3-(3-Pyridyl)-Ala][Sar]-[NH2]] ([X1]SEWQ[Dab][AEF][2Nal][αMeL]E[Dab][3Pal][Sar]-NH2; lactam 3-6, N-10) | 0.025 nM
CC(C)C[C@]1(C)NC(=O)[C@H](Cc2ccc3ccccc3c2)NC(=O)[C@H](Cc2ccc(OCCN)cc2)NC(=O)[C@@H]2CCNC(=O)CC[C@H](NC(=O)[C@H](CO)NC(=O)Cc3ccc(cc3)CNC(=O)CC[C@@H](C(=O)N[C@@H](CCN)C(=O)N[C@@H](Cc3cccnc3)C(=O)N[C@H](Cc3c[nH]cn3)C(N)=O)NC1=O)C(=O)N[C@@H](Cc1c[nH]c3ccccc13)C(=O)N[C@@H](CCC(N)=O)C(=O)N2 [Compound 10, [4-Aminomethyl-phenylacetyl](1c)*SE(2c)WQ[Dab](2c)[Y(2-aminoethoxy)][2-Nal][2-Me-Leu]E(1c)[Dab][3-(3-Pyridyl)-Ala][{d}H]-[NH2]] ([X1]SEWQ[Dab][AEF][2Nal][αMeL]E[Dab][3Pal][dH]-NH2; lactam 3-6, N-10) | 0.038 nM
CC(C)C[C@]1(C)NC(=O)[C@H](Cc2ccc3ccccc3c2)NC(=O)[C@H](Cc2ccc(OCCN)cc2)NC(=O)[C@@H]2CCNC(=O)CC[C@H](NC(=O)[C@H](CO)NC(=O)Cc3ccc(cc3)CNC(=O)CC[C@@H](C(=O)N[C@@H](CCN)C(=O)N[C@H](Cc3c[nH]cn3)C(N)=O)NC1=O)C(=O)N[C@@H](Cc1c[nH]c3ccccc13)C(=O)N[C@@H](CCC(N)=O)C(=O)N2 [Compound 13, [4-Aminomethyl-phenylacetyl](1c)*SE(2c)WQ[Dab](2c)[Y(2-aminoethoxy)][2-Nal][2-Me-Leu]E(1c)[Dab][{d}H]-[NH2]] | 6.8 nM

Same assay, conditions: Table 3-2, EC80 of hIL-23, read-out: hIL-23 (pSTAT3) antagonist IC50

Compound | IC50
CC(C)C[C@]1(C)NC(=O)[C@H](Cc2ccc3ccccc3c2)NC(=O)[C@H](Cc2ccc(OCCN)cc2)NC(=O)[C@@H]2CCNC(=O)CC[C@H](NC(=O)[C@H](CO)NC(=O)Cc3ccc(cc3)CNC(=O)CC[C@@H](C(=O)N[C@@H](CCN)C(=O)N[C@@H](Cc3c[nH]cn3)C(=O)N[C@@H](Cc3cccnc3)C(N)=O)NC1=O)C(=O)N[C@@H](Cc1c[nH]c3ccccc13)C(=O)N[C@@H](CCC(N)=O)C(=O)N2 [Compound 12, [4-Aminomethyl-phenylacetyl](1c)*SE(2c)WQ[Dab](2c)[Y(2-aminoethoxy)][2-Nal][2-Me-Leu]E(1c)[Dab]H[3-(3-Pyridyl)-Ala]-[NH2]] ([X1]SEWQ[Dab][AEF][2Nal][αMeL]E[Dab]H[3Pal]-NH2; lactam 3-6, N-10) | 3.5 nM
